# Experimental data: patent US20090186047A1, “HCV Vaccinations” (INTERCELL AG, priority 2006, published 2009)
# Test system: HCV peptide-specific T cells (MHC class I-restricted CD8+ / MHC class II-restricted CD4+)
# Test: IFN-γ ELIspot assay of spleen cells after vaccination of mice
# Format: in vivo, HLA-A*0201 transgenic mice (HHD.2)
# Protocol: Vaccine: clinical batch PD03127 (lot K) Injection volume of 100 μl per mouse contains:
# As adjuvant: Poly-L-Arginine with an average degree of polymerisation of 40 to 50 arginine residues (determined by multiple angle laser light scattering (MALLS)); lot 113K7277; Sigma Aldrich Inc.; 400 μg • Additional adjuvant: Aldara™ containing 5% Imiquimod, an immunostimulatory agent acting via TLR7; 3M Health Care Ltd.; dose: approx 20 mg/mouse • Formulation buffer: 5 mM phosphate/270 mM sorbitol Experimental set-up 10 mice per group • 1. subcutaneous injection into the flank • 2. intradermal injection into the back • 3. intradermal injection into the back followed by immediate application of Aldara™ cream at injection area
# On days 0, 14 and 28 mice were injected with a total amount of 100 μl/vaccine/mouse containing the above listed compounds at different sites as indicated. Spleens were harvested for each experimental group on day 35 and enriched for CD4^+ T cells by magnetic separation (MACS). CD4^+ T cell-depleted spleen cells were used to determine the CD8^+ T cell response. MHC class II restricted (CD4^+ T cells) as well as MHC class I restricted T cell responses (CD8^+ T cells) against each single HCV-derived peptide were determined using an IFN-7 ELIspot assay. In general, restimulation with an irrelevant peptide induced no IFN-7 production.
# Vaccine: Injection volume of 100 μl per mouse contains: As antigens: Ipep 83 200 μg, Ipep 84 200 μg, Ipep 87 200 μg, Ipep 89 200 μg, Ipep 1426 200 μg As adjuvant: Poly-L-Arginine with an average degree of polymerization of 40 to 50 arginine residues (determined by MALLS); lot 113K7277; Sigma Aldrich Inc.; 400 μg • Additional adjuvant: Aldara™ containing 5% Imiquimod, an immunostimulatory agent acting via TLR7; 3M Health Care Ltd.; dose: approx 20 mg/mouse • Formulation buffer: 5 mM phosphate/270 mM sorbitol Experimental set-up 30 mice per group (10 per time point of analysis) • 1. intradermal injection into the back • 2. intradermal injection into the back followed by immediate application of Aldara™ cream at injection area […]
# [1] = Example 1: subcutaneous injection into the flank, days 0, 14 and 28, spleens day 35
sequence,measurement,setting,value
GYKVLVLNPSVAAT [Ipep 84],MHC class I-restricted CD8+ T cell response (IFN-γ ELIspot),[1],could be detected
same,MHC class II-restricted CD4+ T cell response (IFN-γ ELIspot),[1],could be detected
same,IFN-γ production by MHC class I-restricted CD8+ T cells,"Example 2: two intradermal injections, day 21",induced in comparable strength
